Tests used:
[1] = molecular target: T1, Syk (Mus musculus, UniProt P48025); test: Immunoprecipitation of Syk phosphorylation in IgE/DNP-HSA-stimulated murine mast cells; format: cell-based, mice; details: murine BMMC, N7 1 hour, then antigen 5 minutes; FIG. 1a
Description: (§1) Bone marrow-derived mast cells (BMMC) of mice were separated from BALB/c murine marrow and were cultured in RPMI1640 liquid containing IL-3, 10% of calf serum, 100 U/ml of penicillin and 100 μg/ml of streptomycin for 6 weeks. Two markers c-kit and FceRI on cell membranes were detected by using flow cytometric analysis. When double-positive cells detected, having both markers, have exceeded 95%, the cultured cells can be used for the experiment.
(§2) Mast cells were pre-treated with IgE overnight, and were washed by PBS thrice. After re-suspended with medium, they were treated with different concentrations of Nujiangexanthone A for 1 hour. Dinitrophenyl human serum albumin (DNP-HSA) was used to treat the cells for 5 minutes. A/G agarose was added into the cell lysates and the mixtures were rotated at a rotator for 1 hour. Antibodies of Syk, Fyn and Lyn were added, and the mixtures were rotated overnight. On the following day, PBS was used to wash the complex of magnetic beads, antibody and protein for 5 times. A Western Blot loading dye was added into the complex and the mixtures were boiled for 5 minutes. […]
(§3) The results of FIG. 1a are obtained by pretreating the antibody-treated mast cells with N7 and Src family inhibitor PP2 for 1 hour and then treating the cells with antigens for 5 minutes. […] The downstream signal pathways of Syk including MAPKs, NF-kB and AP-1 were then analyzed by Western Blot.

[2] = system: Fyn; test: Immunoprecipitation of Fyn phosphorylation in IgE/DNP-HSA-stimulated murine mast cells; format: cell-based, mice; details: murine BMMC, N7 1 hour, then antigen 5 minutes; FIG. 1a
Description: as §1, §2, §3

[3] = system: Lyn; test: Immunoprecipitation of Lyn phosphorylation in IgE/DNP-HSA-stimulated murine mast cells; format: cell-based, mice; details: murine BMMC, N7 1 hour, then antigen 5 minutes; FIG. 1a
Description: as §1, §2, §3

[4] = system: downstream signal pathways of Syk including MAPKs, NF-kB and AP-1; test: Western Blot of downstream signaling pathways of Syk in murine mast cells; format: cell-based, mice; details: murine BMMC, FIG. 1b
Description: as §1
Cells were treated with Nujiangexanthone A (N7) in corresponding concentrations for 5, 15 and 30 minutes. The samples were collected and lysed. The samples were then separated by 8% gel in sodium dodecyl sulfate polyacrylaminde gel electrophoresis (SDS-PAGE) and transferred to polyvinylidene fluoride (PVDF) membrane. The following antibodies were used to analyze the samples: ERK, JNK, p38, IKK, IkBa, NF-kB and so forth. If the compound is found to interfere with the expression and phosphorylation of the target proteins, a corresponding specific inhibitor may be used to conduct a comparative analysis.
The results of FIG. 1a are obtained by pretreating the antibody-treated mast cells with N7 and Src family inhibitor PP2 for 1 hour and then treating the cells with antigens for 5 minutes. Phosphorylation of Syk, Fyn and Lyn were then examined by immunoprecipitation. The results of FIG. 1b are obtained by pretreating the antibody-treated mast cells with N7 and Src family inhibitor PP2 for one hour and then treating with antigens for 15 minutes. The downstream signal pathways of Syk including MAPKs, NF-kB and AP-1 were then analyzed by Western Blot.

[5] = system: murine spleen cells; test: ELISA of cytokines in spleen cells of asthma mice; format: in vivo; details: spleen cells treated with OVA for 3 days, ELISA (IL-4, IL-5, IL-13, IFNγ); FIG. 2a
Description: (§4) Lymph nodes and spleen of mice were collected. The collected tissues were respectively grinded, counted and cultivated. The cultured tissues were stimulated with PMA and ionomycin for 48 hours. The supernatant and the cells were then collected for analysis. The supernatant was used for examining various cytokines, and the cells were used for measuring expressions of various T cell specific proteins by Western blot.
(§5) To obtain the data in FIG. 2a, murine spleen cells were grinded and treated with OVA for 3 days, and then the supernatants of the cell mixtures were collected for ELISA analysis. […] As shown in FIG. 2b and FIG. 2c, the signal transduction proteins in spleen cells were detected. According to the experimental results, N7 inhibits the phosphorylation of Syk in spleen cells of mice having asthma.

[6] = system: Zap70; test: Western Blot of phosphorylated Zap70 in spleen cells of asthma mice; format: in vivo; details: FIG. 2b, 2c
Description: as §4, §5

[7] = system: Stat6; test: Western Blot of phosphorylated Stat6 in spleen cells of asthma mice; format: in vivo; details: FIG. 2b, 2c
Description: as §4, §5

[8] = system: GATA3; test: Western Blot of GATA3 in spleen cells of asthma mice; format: in vivo; details: FIG. 2b, 2c
Description: as §4, §5

[9] = system: T-bet; test: Western Blot of T-bet in spleen cells of asthma mice; format: in vivo; details: FIG. 2b, 2c
Description: as §4, §5

[10] = system: Balb/c mice, asthma animal model; test: OVA asthma animal model; format: in vivo
Description: (§6) Balb/c mice of SPF grade were selected for establishing an asthma animal model. With reference to FIG. 3a, ovalalbumin (OVA) dissolved in PBS with aluminum hydroxide gel was intraperitoneally injected to the mice to trigger systemic allergic responses, i.e. OVA sensitization. Then, atomized OVA was given to stimulate or challenge respiratory tracts of the mice. As such, a control group was prepared. By using the similar approach, treatment groups with an administration of N7 in different concentrations as well as a positive control group with an administration of dexamethasone were established. Also, a further control group of PBS was established by using same volume of PBS to replace OVA and using the PBS to replace the atomized OVA.
(§7) Symptoms of the mice were recorded during the test. Peripheral blood of the mice was collected before the end of the test so as to measure the release of IgE. Airway lavages were collected and the supernatants thereof were tested to measure the release of various cytokines. Cells were counted after being fixed and stained. The effect of Nujiangexanthone A on different types of immune cells was studied.

[11] = molecular target: T1, Syk; test: Immunohistochemistry of p-Syk in lung tissues of asthma model mice; format: in vivo; details: FIG. 3d
Description: as §6, §7

[12] = system: PBMC of asthma patients; test: qPCR of cytokines in PBMC of asthma patients; format: cell-based, human; details: mRNA by qPCR, FIG. 4
Description: Blood samples were collected from normal (healthy) people and people with asthma Peripheral blood mononuclear cells (PBMC) were isolated. By using Ficoll-density method, the effect of Nujiangexanthone A on the release of various cytokines in the isolated PBMCs was measured by qPCR.

[13] = system: Syk; test: Western blot of Syk phosphorylation in PMA/ionomycin-treated Jurkat cells; format: cell-based, Human; details: N7 1 hour, PMA and ionomycin 15 minutes, FIG. 5a
Description: (§8) Jurkat T cells were cultured in RPMI1640 containing 10% fetal calf serum, 100 U/ml of penicillin and 100 μg/ml of streptomycin. The cells were passed once every two days with fresh medium. After pretreating the cells with a medicament, PMA and ionomycin were used to treat the cells at different time points. After the treatments, the cells were collected for biomarker measurements.
(§9) Jurkat T cells culture: in a safe range of concentrations, cells were treated with Nujiangexanthone A in corresponding concentrations for 5, 15 and 30 minutes. The samples were collected and lysed. The samples were then separated by 8% gel in SDS-PAGE and transferred to PVDF membrane. The following antibodies were used to analyze the samples: ERK, JNK, p38, IKK, IkBa, NF-kB and so forth. If the compound is found to interfere with the expression and phosphorylation of the target proteins, a corresponding specific inhibitor may be used to conduct a comparative analysis.
(§10) In one test, Jurkat cells were pretreated with N7 and Src family inhibitor PP2 for 1 hour and then co-treated with PMA and ionomycin for 15 minutes. Then, a plurality of proteins of T cells signaling transduction pathways were measured by Western blot.

[14] = system: Fyn; test: Western blot of Fyn phosphorylation in PMA/ionomycin-treated Jurkat cells; format: cell-based, Human; details: N7 1 hour, PMA and ionomycin 15 minutes, FIG. 5a
Description: as §8, §9, §10

[15] = system: Lck; test: Western blot of Lck phosphorylation in PMA/ionomycin-treated Jurkat cells; format: cell-based, Human; details: N7 1 hour, PMA and ionomycin 15 minutes, FIG. 5a
Description: as §8, §9, §10

[16] = system: Murine BMMCs; test: Activation of murine mast cells (cytokines, degranulation, Ca2+, LTC4); format: cell-based, BALB/c mice; details: BMMC
Description: Murine BMMCs were isolated from BALB/c murine marrow and were cultured in a RPMI1640 medium containing IL-3, 10% of calf serum, 100 U/ml of penicillin and 100 μg/ml of streptomycin for 6 weeks. Two markers c-kit and FceRI on cell membranes were detected by using flow cytometric analysis. When double-positive cells detected, having both markers, have exceeded 95%, the cultured cells can be used for the experiment.
IgE mast cells were pretreated with IgE overnight and washed by PBS thrice. After re-suspended with medium, they were treated with different concentrations of Nujiangexanthone A for 1 hour. DNP-HAS or antigen was then used to treat the cells for 6 hours. The supernatants were collected for measurement. The amounts of TNF-α and IL-6 were measured by an ELISA kit.
IgE mast cells were pretreated with IgE overnight and washed by PBS thrice. After re-suspended with medium, they were treated with different concentrations of Nujiangexanthone A for 1 hour. DNP-HAS or antigen was then used to treat the cells for 15 minutes. The supernatants were collected for measurement. The amounts of LTC4 and Ca^2+ as well as the degranulation response were measured by an ELISA kit.
The amount of b-Hex was measured to evaluate the degranulation response.

[17] = system: lung tissue; test: Cytokines in lung tissue of asthma animal models; format: in vivo; details: asthma model mice; FIG. 7
Description: as §6
Some portions of lung tissue of the animal models were collected to evaluate lung inflammatory status. A portion of the collected lung tissue was isolated to extract RNA, and another portion of the lung tissue was grinded and digested for cytokines measurements.

[18] = molecular target: T1, Syk; test: Western Blot of phosphorylated Syk in spleen cells of asthma mice; format: in vivo; parameters: from tissue; host or cells: mouse spleen cells; details: spleen cells of mice having asthma; FIG. 2b, 2c
Description: as §4, §5

[19] = N7 1 hour, DNP-HAS 15 minutes, dose-dependent, FIG. 6
[20] = N7 1 hour, DNP-HAS 6 hours, ELISA, dose-dependent, FIG. 6

T1 sequence (P48025 whole entry): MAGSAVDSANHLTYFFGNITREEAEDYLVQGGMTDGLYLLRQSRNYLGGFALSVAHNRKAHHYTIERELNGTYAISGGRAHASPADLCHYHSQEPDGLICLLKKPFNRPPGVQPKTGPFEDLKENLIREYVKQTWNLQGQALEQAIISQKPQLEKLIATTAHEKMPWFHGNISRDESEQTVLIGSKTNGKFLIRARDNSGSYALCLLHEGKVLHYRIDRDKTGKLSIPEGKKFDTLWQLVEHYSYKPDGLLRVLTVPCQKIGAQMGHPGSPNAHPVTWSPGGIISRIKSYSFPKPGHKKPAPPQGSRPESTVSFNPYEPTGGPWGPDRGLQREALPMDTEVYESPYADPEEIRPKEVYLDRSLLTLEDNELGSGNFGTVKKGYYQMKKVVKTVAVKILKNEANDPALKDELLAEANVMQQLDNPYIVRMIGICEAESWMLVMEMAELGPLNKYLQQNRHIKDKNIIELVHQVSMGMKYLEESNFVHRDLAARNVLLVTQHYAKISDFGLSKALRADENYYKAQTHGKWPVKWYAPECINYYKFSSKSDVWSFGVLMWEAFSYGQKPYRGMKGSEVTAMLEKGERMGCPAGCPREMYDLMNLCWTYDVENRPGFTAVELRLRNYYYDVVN

COc1c(O)c(O)c2c(=O)c3c(CC=C(C)C)c(CC=C(C)C)c(O)c(O)c3oc2c1CC=C(C)C [Nujiangexanthone A]
phosphorylation of Syk [1]: selectively inhibits
phosphorylation of Fyn [2]: does not affect
phosphorylation of Lyn [3]: does not affect
MAPK signaling pathways ([4]; N7 1 hour, antigen 15 minutes): inhibits
nuclear translocation of p65 ([4]; cytoplasm and nucleus separated): inhibits
production of transcription factors AP-1 (c-Jun+c-fos) [4]: is inhibited
production of cytokines in spleen tissues [5]: inhibits
expression of phosphorylated Zap70 [6]: inhibits
expression of phosphorylated Stat6 [7]: inhibits
expression of GATA3 [8]: inhibits
expression of T-bet [9]: without altering
production of IgE in serum ([10]; OVA asthma mice, FIG. 3b): effectively inhibits
level of phosphorylated tyrosine in lung tissues ([10]; immunohistochemistry, FIG. 3d): inhibits
infiltrates in peribronchial inflammatory cell ([10]; lung tissues, H&E and PAS, FIG. 3c): decreases
level of phosphorylated Syk in lung tissues [11]: inhibits
expression of IFN′ [12]: does not inhibit
production of IL-5 [12]: inhibits
production of IL-13 [12]: inhibits
production of IL-17 [12]: inhibits
phosphorylation of Syk [13]: selectively inhibits
phosphorylation of Fyn [14]: does not affect
phosphorylation of Lck [15]: does not affect
concentration of calcium [16, 19]: lower
degranulation of mast cells (b-Hex) [16, 19]: inhibit
production of leukotriene LTC4 [16, 19]: inhibit
production of IL-6 [16, 20]: inhibit
production of TNF-α [16, 20]: inhibit
cytotoxicity ([16]; range of concentration used in the activation tests): no cytotoxicity
production of IFNγ in lung tissue [17]: does not affect
production of IL-4 in lung tissue [17]: inhibits
production of IL-5 in lung tissue [17]: inhibits
production of IL-13 in lung tissue [17]: inhibits
production of LTC4 in lung tissue [17]: inhibits
production of PGD2 in lung tissue [17]: inhibits
production of eotaxin in lung tissue [17]: inhibits
expression of phosphorylated Syk [18]: inhibits

Reference: patent US9868716B2, “Method for preventing and/or treating a subject suffering from asthma” (Hong Kong Baptist University, priority 2014, dated 2018)
